Like-named read-outs stand apart in the source and are kept apart here. Non-standard residues stand in square brackets, D forms with d. Residues, ends and D or L forms follow the SMILES beside them. ξ: configuration not given here. Aoe(9ξ) = N[C@@H](CCCCCC(=O)C1CO1)C(=O)O; dPip = O=C(O)[C@H]1CCCCN1
Tests used:
293T cells = assay: In vitro cytotoxicity analysis (CellTiter-Glo), 293T
Protocol: (§1) In all, 1% DMSO was used as a negative control. The inhibition of each drug was normalized to that of the DMSO control. EC50 was calculated by GraphPad Prism. Three independent assays with two technical replicates each time were conducted in this experiment.

[1] = as above; conditions: human
Protocol: as §1

HepG2 cells = assay: In vitro cytotoxicity analysis (CellTiter-Glo), HepG2; conditions: for Selectivity index (range over HepG2 and 293T): HepG2 and 293T vs 3D7
Protocol: as §1

[2] = as above; conditions: human
Protocol: as §1

P. falciparum Dd2 = assay: 3-day SYBR Green I GIA, multidrug-resistant strain Dd2; format: cell-based, Plasmodium falciparum; conditions: Plasmodium falciparum, 72 h; 3-day SYBR Green I GIA, multidrug-resistant strain Dd2; read-out: Antiplasmodial activity EC50, Dd2
Protocol: (§2) A 3-day SYBR Green I inhibition EC50 assay was performed as described previously. Briefly, highly synchronized ring-stage parasites by 5% sorbitol (1% parasitemia and 2% hematocrit) were incubated in a 96-well plate with compounds in a total volume of 200 μL. […] The parasites were cultured for 72 h before SYBR Green I staining as described above. The EC50 was calculated by GraphPad Prism. DHA was used as a positive control, and the final concentration of DMSO was 1%.

P. falciparum 3D7 [3] = assay: 3-day SYBR Green I growth inhibition assay (GIA), strain 3D7; format: cell-based, Plasmodium falciparum; conditions: Plasmodium falciparum, 3D7, 72 h, read-out: Antiplasmodial activity EC50, 3D7
Protocol: as §2

[4] = tested on: parasite histone H3 acetylation; assay: Western blot of histone H3 acetylation in parasites; format: cell-based, Plasmodium falciparum; conditions: 4 h treatment of asynchronous 3D7; quisinostat/JX21108 5 and 20 nM, SAHA 500 nM
Protocol: Then the parasite samples were harvested and treated with 0.15% saponin to remove the RBC proteins and sonicated in 1% NP40 lysis buffer. After centrifugation at 12,000× g for 15 min, the supernatant was resuspended in a routine SDS loading buffer. Parasite proteins were separated by 10% SDS-PAGE and transferred onto PVDF membranes (Millipore). […] A2348) followed by a secondary antibody conjugated with HRP (Jackson Immuno Research Laboratories). The chemiluminescent HRP substrate Immobilon Western Kit (Millipore) was used for signal detection.

[5] = tested on: P. falciparum clinical isolates 6218 and 6320; assay: Ring-stage survival assay (RSA), isolates 6218 and 6320; format: cell-based, Plasmodium falciparum; conditions: 700 nM, 6 h exposure, synchronized rings of isolates 6218 and 6320
Protocol: An RSA was performed as described previously[65] to evaluate the activity of JX21108 against the artemisinin- and piperaquine-resistant P. falciparum clinical isolates 6218 and 6320[43]. Briefly, parasites were highly synchronized at 0–3 hpi by a 60%/40%-Percoll gradient[66] followed by 5% D-sorbitol[67] treatment after 3 h. The parasite suspension (0.5%–1% parasitemia, 2% hematocrit) was incubated with compounds at 700 nM in a total volume of 2 mL in a 48-well plate for 6 h. After that, the culture mixture was washed three times with 15 mL of CM before another 66 h of cultivation with CM. A Giemsa-stained blood smear was made after cultivation. Parasitemia was counted from at least 10,000 RBCs by microscopy. The survival rate was calculated as the percentage of that in DMSO control. DHA at a concentration of 700 nM served as a positive control.

[6] = tested on: P. falciparum isolate 6218; assay: 3-day SYBR Green I GIA, field isolate 6218; format: cell-based; conditions: Plasmodium falciparum; artemisinin- and piperaquine-resistant isolate; read-out: Resistant isolates EC50, 6218
Protocol: as §2

P. falciparum 3D7 [7] = assay: Ring-stage survival assay (RSA), sensitive strain 3D7; format: cell-based, Plasmodium falciparum; conditions: 700 nM
[8] = tested on: P. falciparum isolate 6320; assay: 3-day SYBR Green I GIA, field isolate 6320; format: cell-based; conditions: Plasmodium falciparum; artemisinin- and piperaquine-resistant isolate; read-out: Resistant isolates EC50, 6320
Protocol: as §2

P. falciparum GB4 = assay: 3-day SYBR Green I GIA, strain GB4; format: cell-based; conditions: Plasmodium falciparum; GB4 resistant to chloroquine; read-out: Resistant isolates EC50, GB4
Protocol: as §2

P. falciparum CP286 = assay: 3-day SYBR Green I GIA, strain CP286; format: cell-based; conditions: Plasmodium falciparum; CP286 resistant to pyrimethamine and chloroquine; read-out: Resistant isolates EC50, CP286
Protocol: as §2

P. falciparum C2A = assay: 3-day SYBR Green I GIA, strain C2A; format: cell-based; conditions: Plasmodium falciparum, read-out: Resistant isolates EC50, C2A
Protocol: as §2

[9] = 293T cells, Cytotoxicity EC50, 293T, 72 h, CellTiter-Glo
[10] = 3-day SYBR Green I GIA, drug-sensitive strain 3D7

Row | Compound | EC50 (P. falciparum Dd2) [µM] | EC50 (P. falciparum 3D7 [3]; [10]) [µM] | Selectivity index for 293T (EC50 293T/EC50 3D7) (293T cells) | EC50 at 72 h [1, 9] [µM] | Selectivity index for HepG2 (EC50 HepG2/EC50 3D7) (HepG2 cells) | EC50 at 72 h ([2]; HepG2 cells) [µM] | also measured
1 | Cl.Cn1cc(CN2CCC3(CCN(c4ncc(C(=O)NO)cn4)C3)C2)c2cc(Br)ccc21 (centres unmarked) [JX21141] | 0.001736 ± 5e-06 | 0.0033 ± 0.0005 | 189 | 0.633 ± 0.209 | 88 | 0.294 ± 0.045 | 
2 | Cl.O=C(NO)c1cnc(N2CCC3(CCN(Cc4cc5ccccc5s4)C3)C2)nc1 (centres unmarked) [JX21118] | 0.0064 ± 0.0013 | 0.00561 ± 4e-05 | 292 | 1.64 ± 0.122 | 298 | 1.67 ± 0.23 | 
3 | CN(c1ncc(C(=O)NO)cn1)C1CCN(Cc2cn(C)c3ccccc23)CC1.Cl [JX21006] | 0.032 ± 0.0025 | 0.0265 ± 0.0012 | 4 | 0.118 ± 0.024 | 1 | 0.037 ± 0.01 | 
4 | O=C(CCCCC[C@@H]1NC(=O)[C@H]2CCCCN2C(=O)[C@H](Cc2ccccc2)NC(=O)[C@H](Cc2ccccc2)NC1=O)C1CO1 (some centres unmarked) [Trapoxin A, reference compound] (cyclo(FF[dPip][Aoe(9ξ)])) |  |  | 9 |  | 77 |  | EC50 at 72 h [1]: 0.724 µM; EC50 at 72 h [2]: 6.32 µM; EC50 (P. falciparum 3D7 [3]): 0.082 µM
5 | Cl.Cn1c(CN2CCC3(CCN(c4ncc(C(=O)NO)cn4)C3)C2)cc2ccccc21 (centres unmarked) [JX21123] | 0.0072 ± 0.0003 | 0.0062 ± 0.0013 | 193 | 1.2 ± 0.156 | 202 | 1.25 ± 0.062 | 
6 | Cl.Cn1cc(CN2CCC3(CCCN(c4ncc(C(=O)NO)cn4)C3)CC2)c2ccccc21 [JX21017] | 0.0324 ± 0.0018 | 0.0289 ± 0.0012 | 156 | 4.497 ± 0.033 | 98 | 2.35 ± 0.093 | 
7 | Cl.Cn1cc(CN2CC3(CCN(c4ncc(C(=O)NO)cn4)CC3)C2)c2ccccc21 [JX21014] | 0.0107 ± 0.0002 | 0.0169 ± 0.0008 | 67 | 1.13 ± 0.026 | 21 | 0.348 ± 0.024 | 
8 | COc1ccc2c(CN3CCC4(CCN(c5ncc(C(=O)NO)cn5)C4)C3)cn(C)c2c1.Cl (centres unmarked) [JX21142] | 0.0034 ± 0.0022 | 0.0136 ± 0.0042 | 90 | 1.23 ± 0.102 | 72 | 0.975 ± 0.001 | 
9 | Cl.O=C(NO)c1cnc(N2CCC3(CCN(Cc4ccc5ccccc5c4)C3)C2)nc1 (centres unmarked) [JX21101] | 0.00218 ± 2e-05 | 0.0035 ± 0.0002 | 331 | 1.16 ± 0.193 | 186 | 0.651 ± 0.063 | 
10 | Cl.Cn1nc(CN2CCC3(CCN(c4ncc(C(=O)NO)cn4)C3)C2)c2ccccc21 (centres unmarked) [JX21124] | 0.0043 ± 0.0005 | 0.0058 ± 0.0009 | 229 | 1.33 ± 0.029 | 195 | 1.13 ± 0.168 | 
11 | O=C(CCCCCCC(=O)Nc1ccccc1)NO [SAHA] |  |  |  |  |  |  | pan-acetylation levels of parasite histone H3 [4]: greatly increased the pan-acetylation levels of parasite histone H3
12 | C[C@H]1[C@@H](O)O[C@@H]2O[C@@]3(C)CC[C@H]4[C@H](C)CC[C@@H]1[C@@]24OO3 [DHA, dihydroartemisinin, reference compound] |  |  |  |  |  |  | RSA survival rate [5]: ~8%; EC50 [6]: 0.0055 ± 0.0011 µM; RSA effect on ring-stage parasites of 3D7 (P. falciparum 3D7 [7]): efficiently killed the ring-stage parasites; EC50 [8]: 0.0065 ± 0.0014 µM; EC50 (P. falciparum GB4): 0.0032 ± 0.0012 µM; EC50 (P. falciparum CP286): 0.0056 ± 0.0024 µM; EC50 (P. falciparum C2A): 0.0037 ± 0.0024 µM

Second part, led by results:

Row | EC50 (P. falciparum Dd2) [µM] | EC50 (P. falciparum 3D7 [3]; [10]) [µM] | Compound | Selectivity index for 293T (EC50 293T/EC50 3D7) (293T cells) | EC50 at 72 h [1, 9] [µM] | Selectivity index for HepG2 (EC50 HepG2/EC50 3D7) (HepG2 cells) | EC50 at 72 h ([2]; HepG2 cells) [µM] | also measured
13 | 0.0032 ± 0.0001 | 0.003 ± 0.0007 | Cn1cc(CN2CCC3(CCN(c4ncc(C(=O)NO)cn4)C3)C2)c2ccccc21 (centres unmarked) [JX21011] | 24 | 0.072 ± 0.01 | 38 | 0.113 ± 0.001 | Selectivity index (range over HepG2 and 293T) (HepG2 cells): 24–70
14 | 0.0212 ± 0.0009 | 0.0288 ± 0.0185 | Cl.O=C(NO)c1cnc(N2CCC3(CCN(Cc4c5ccccc5cc5ccccc45)C3)C2)nc1 (centres unmarked) [JX21138] | 69 | 1.99 ± 0.559 | 45 | 1.31 ± 0.014 | 
15 | 0.0072 ± 0.0002 | 0.0048 ± 0.0001 | Cl.O=C(NO)c1cnc(N2CCC3(CCN(Cc4csc5ccccc45)C3)C2)nc1 (centres unmarked) [JX21115] | 100 | 0.482 ± 0.042 | 179 | 0.864 ± 0.076 | 
16 | 0.0078 ± 0.0013 | 0.008 ± 0.0005 | Cl.Cn1cc(CN2CCC3(CCN(c4ncc(C(=O)NO)cn4)C3)C2)c2ccncc21 (centres unmarked) [JX21129] | 141 | 1.12 ± 0.098 | 192 | 1.53 ± 0.069 | 
17 | 0.00761 ± 5e-05 | 0.0064 ± 0.0003 | Cl.O=C(NO)c1cnc(N2CCC3(CCN(Cc4cc5ccccc5o4)C3)C2)nc1 (centres unmarked) [JX21117] | 252 | 1.61 ± 0.334 | 255 | 1.64 ± 0.025 | 
18 | 0.0075 ± 0.002 | 0.0084 ± 0.0004 | Cl.Cn1cc(CN2CCC3(CCN(c4ncc(C(=O)NO)cn4)C3)C2)c2cccnc21 (centres unmarked) [JX21130] | 552 | 4.64 ± 0.375 | 140 | 1.18 ± 0.084 | 
19 | 0.007 ± 0.0002 | 0.0044 ± 0.0002 | Cl.Cn1cc(CN2CC3CN(c4ncc(C(=O)NO)cn4)CC3C2)c2ccccc21 (centres unmarked) [JX21002] | 70 | 0.307 ± 0.004 | 29 | 0.128 ± 0.002 | Selectivity index (range over HepG2 and 293T) (HepG2 cells): 24–70
20 | 0.0054 ± 0.0002 | 0.0105 ± 0.0001 | Cl.O=C(NO)c1cnc(N2CCC3(CCN(Cc4ccc5c(c4)OCO5)C3)C2)nc1 (centres unmarked) [JX21140] | 235 | 2.45 ± 0.301 | 47 | 0.493 ± 0.149 | 
21 | 0.007 ± 0.0003 | 0.0098 ± 0.0003 | Cl.O=C(NO)c1cnc(N2CCC3(CCN(Cc4ccc5c(c4)CCO5)C3)C2)nc1 (centres unmarked) [JX21109] | 260 | 2.56 ± 0.113 | 133 | 1.31 ± 0.073 | 
22 | 0.003 ± 0.0001 | 0.0016 ± 0.0003 | COc1ccc2c(c1)c(CN1CCC3(CCN(c4ncc(C(=O)NO)cn4)C3)C1)cn2C.Cl (centres unmarked) [JX21104] | 217 | 0.659 ± 0.128 | 176 | 0.534 ± 0.045 | 
23 |  | 0.063 | COc1ccc(-c2nc(N3CCOCC3)c3sc(CN(C)c4ncc(C(=O)NO)cn4)cc3n2)cn1 [Fimepinostat, reference compound] | 1 | 0.069 | 1 | 0.07 | 

From publication PMC7733455, “A novel multistage antiplasmodial inhibitor targeting Plasmodium falciparum histone deacetylase 1” (Cell Discovery, 2020)
